Measurements taken from patent US20180177749A1, “USE OF CYP EXPRESSION TO DIRECT THERAPEUTIC INTERVENTION IN CANCER” (REGENTS OF THE UNIVERSITY OF MINNESOTA, priority 2016, published 2018).
Entries after “also recorded” stand apart in the source; their conditions may differ. Read-outs that look alike come from different tables or passages of the source. Blank lines part the entries; values can stand above or below the compound they belong to.

Experiments:
MCF-7 = assay: MTT cell proliferation assay, MCF-7; format: cell-based; conditions: Homo sapiens, MCF7
Method: Cells were grown at 37° C. in a 5% CO2 incubator. […] MTT was then added (5 mg/ml), and after 2 h of incubation, the plates were centrifuged. The supernatant was removed; DMSO was added, and the absorbance was read at 540 nm with a BioTek 96-well plate reader.

MCF-7 cells [1] = assay: JC-1 mitochondrial membrane potential staining, MCF-7; format: cell-based, human; conditions: HBB 20 μM 4 hours, (±)-14,15-EET 1 μM
Method: (§1) Cells were grown in chamber slides at 37° C. with 5% CO2 and treated with DMSO or HBB for 4 hours before JC-1 dye was added for the MCF-7 or MDA-MB-231 cell line. […] Images of red fluorescence (590 nm) and green fluorescence (530 nm) were acquired using an Olympus 1X70 microscope fitted with an Olympus DP70 digital camera (Olympus, Tokyo, Japan).

MCF-7 cells [2] = assay: RPPA analysis of MCF-7 cells treated with (±)-14,15-EET; format: cell-based, human; conditions: 15 minutes
Text: It is proposed that HBB inhibition of ER+ tumor growth is due, in part, to direct inhibition of membrane associated non-mitochondrial CYP3A4, thereby suppressing Stat3 and mTOR signaling due to suppression of EET biosynthesis, resulting in AMPK activation (FIG. 6d, membrane diagram). […] In this model, EETs inhibit AMPK through unknown mechanisms. […] This model therefore proposes two sites of CYP3A4 activity, at cellular membranes and at mitochondria.

MCF-7 cells [3] = assay: Western blot of signaling proteins, MCF-7; format: cell-based, human
Method: (§2) RIPA extracts of cells were prepared as described previously, in the presence of protease inhibitors and phosphatase inhibitors. Protein concentrations were determined by the micro-bicinchoninic acid (BCA) method, and 30 μg of protein was used for each lane of the SDS-polyacrylamide gel Western blot. Relative protein expression was estimated using GAPDH or β-actin as an internal standard.

MDA-MB-231 cell line = assay: Western blot of AMPK phosphorylation, MDA-MB-231; format: cell-based, human; conditions: 1.0 μM, 24 hours
Method: as §2

MDA-MB-231 cells = assay: JC-1 mitochondrial membrane potential staining, MDA-MB-231; format: cell-based, human; conditions: HBB 20 μM 4 hours, (±)-14,15-EET 1 μM
Method: as §1

MCF-7 cells [4] = assay: Measurement of OCR and ECAR (extracellular flux), MCF-7; format: cell-based, human; conditions: t-AUCB 2.5, 5 μM, metformin 2.5, 5 mM, HBB 20, 40 μM, rotenone 1 μM
Method: Cells were maintained in growth medium consisting of 10% FBS at 37° C. with 5% CO2 and seeded at 100,000 cells per well in XF24-well cell culture microplates (Seahorse Bioscience, North Billirica, Mass.). Concentrated stocks of HBB were prepared in DMSO. HBB was diluted to 10× working concentration in XF assay medium (a non-buffered medium including 2 mM L-glutamine but no sodium bicarbonate (buffering agent), glucose, or sodium pyruvate). Assays were performed in the XF Extracellular Flux Analyzer (Seahorse Bioscience that measures uptake and excretion of metabolic end products in real time). Oxygen consumption rate (OCR) and extracellular acidification rate (ECAR) were measured using an XF Assay Kit. OCR is reported in pmoles/minute and ECAR in mpH/minute. Before analysis, the cells were switched from culture medium to XF assay medium. After baseline measurements, 75 μl of HBB prepared in assay medium was injected into each well to reach final working concentrations. After addition of HBB, OCR and ECAR were measured at 18-minute intervals. […] There were 6 replicates for the studies of the 3-18 and 4-14 cell lines.

CYP2C8 = biological target: T1, CYP2C8 (Homo sapiens, UniProt P10632); assay: Binding to CYP nanodiscs (CYP2C8)
T1 sequence (P10632 1-490): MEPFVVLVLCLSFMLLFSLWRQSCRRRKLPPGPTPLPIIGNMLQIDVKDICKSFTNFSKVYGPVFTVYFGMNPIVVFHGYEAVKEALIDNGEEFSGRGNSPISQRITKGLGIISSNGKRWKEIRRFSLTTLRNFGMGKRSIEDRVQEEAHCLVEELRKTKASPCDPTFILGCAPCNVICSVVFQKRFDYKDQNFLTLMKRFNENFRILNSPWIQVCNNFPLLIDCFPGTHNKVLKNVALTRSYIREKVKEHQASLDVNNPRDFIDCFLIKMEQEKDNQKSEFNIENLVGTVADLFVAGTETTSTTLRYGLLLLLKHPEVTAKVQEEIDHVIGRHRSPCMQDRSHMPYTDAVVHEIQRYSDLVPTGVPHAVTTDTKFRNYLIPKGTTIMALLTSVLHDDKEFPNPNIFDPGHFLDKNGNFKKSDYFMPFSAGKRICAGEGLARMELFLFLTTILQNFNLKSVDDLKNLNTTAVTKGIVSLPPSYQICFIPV

MCF-7 cells [5] = assay: Cellular ATP by luminescent assay; format: cell-based, human; conditions: 6 hours of treatment; metformin 5 mM
Method: Cells were seeded in 96-well tissue culture plate in 100 μL medium per well. After treatment with either vehicle or testing compound for an appropriate length of time, 50 μL mammalian cell lysis solution was added to each well and the plate was shaken for 5 minutes on an orbital shaker. To each well, 50 μL luminescent substrate and luciferase solution were then added. After incubation in the dark for 10 minutes, the luminescence measured. Cellular ATP levels were then calculated against a standard curve generated with ATP standards of known concentration.

[6] = tested on: cytochrome P450 reductase (CPR); assay: CPR-mediated reduction of cytochrome c; format: biochemical; conditions: 1 and 10 mM
Method: In a quartz cuvette, reduction of cytochrome c reaction was initiated by addition of CPR (final concentration 0.2 mg/mL) to 1 mL potassium phosphate buffer (0.3 M, pH=8.3) containing cytochrome c ([…]) and NADPH 50 ([…]). Absorbance at 550 nm was monitored real time by a Cary 50 UV-Vis Spectrophotometer (Agilent, Santa Clara, Calif.).

CYP2J2 [7] = biological target: T2, CYP2J2 (Homo sapiens, UniProt P51589); assay: CYP2J2 epoxygenase activity; conditions: 0.75, 1.5 or 3 mM
T2 sequence (P51589 1-502): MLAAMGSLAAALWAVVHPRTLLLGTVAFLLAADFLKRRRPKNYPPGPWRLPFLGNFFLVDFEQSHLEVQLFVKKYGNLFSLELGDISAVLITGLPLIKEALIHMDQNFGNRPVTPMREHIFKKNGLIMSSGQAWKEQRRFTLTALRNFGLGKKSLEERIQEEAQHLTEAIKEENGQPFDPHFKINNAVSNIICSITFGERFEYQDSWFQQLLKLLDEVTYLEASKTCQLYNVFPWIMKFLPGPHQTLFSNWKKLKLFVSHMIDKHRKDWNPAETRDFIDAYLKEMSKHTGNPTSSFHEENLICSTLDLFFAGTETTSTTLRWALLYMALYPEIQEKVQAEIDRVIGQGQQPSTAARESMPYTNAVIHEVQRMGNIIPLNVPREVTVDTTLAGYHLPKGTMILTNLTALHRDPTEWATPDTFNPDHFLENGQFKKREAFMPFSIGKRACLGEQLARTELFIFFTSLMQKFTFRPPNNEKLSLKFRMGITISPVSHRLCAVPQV

MCF-7 xenograft = conditions: 100-fold higher dosing than HBB (Ma et al.); cited from earlier work
MCF-7 cells [8] = assay: Clonogenicity of MCF-7 cells; format: cell-based, human; conditions: 1 mM, 24 hours treatment, 2 weeks culture
Method: FIG. 9A. […] After 24 hours of culture, the medium was then removed followed by addition of CM to the plates (left panel). The plates were then cultured for 2 weeks and at the endpoint the cell colonies were stained with crystal violet and the colonies counted. […] FIG. 9B.

MCF-7 cells [9] = assay: Cellular EET levels by LC-ESI/MS/MS; format: cell-based, human; conditions: metformin 5 mM, 6 hours
Method: Samples were submitted to liquid chromatography-electrospray ionization/multiple reaction monitoring/mass spectrometry (LC-ESI/MRM/MS) analysis in a Thermo Electron Quantum Discovery Max triple quadrupole mass spectrometer (Thermo Finnigan, San Jose, Calif.) coupled with an Agilent 1100 HPLC (Santa Clara, Calif.), using argon as the collision gas. Negative ion monitoring was performed at the following diagnostic product ions: 319 m/z→155 m/z for 8,9-EET; 319 m/z→179 m/z for 11,12-EET; 319 m/z→219 m/z for 14,15-EET; 339 m/z→163 m/z for 8,9-[13C20]EET; 339 m/z→233 m/z for 11,12-[13C20]EET; and 339 m/z→259 m/z for 14,15-[^13C20]EET. Base-line resolution of EET regioisomers was achieved on a Phenomenex Luna C18 (2) reverse phase capillary column (250×0.5 mm, 5-μm particles) using the following mobile phase combinations: isocratic 5% B for 5 min, gradient 5-70% B for 5 min, hold at 70% for 30 min and then 95% for 10 min; A: 0.01% acetic acid in water, B: 0.01% acetic acid in acetonitrile; […] flow rate. A standard curve was obtained by linear regression of the peak area ratio of authentic EET regioisomers against internal standards. The amount of EETs in samples was calculated according to the standard curve. The (±)-5,6-EET regioisomer was not measured because it undergoes rapid internal degradation. […]

CYP2J2 [10] = biological target: T2, CYP2J2; assay: Binding to CYP nanodiscs (CYP2J2)
[11] = read-out: IC50, MCF-7 breast cancer cell line

Compound: CCCCCCNC(=N)NC(=N)NCc1ncc[nH]1 [HIB, N1-hexyl-N5-[(1H-imidazol-2-yl)methyl]-biguanide]
IC50 (MCF-7; [11]): ~500 µM
IC50 (MCF-7; read-out: IC50 MCF-7): 500 µM

Compound: CCCCCC1OC1C/C=C\C/C=C\C/C=C\CCCC(=O)O (racemic) [(±)-14,15-EET, (±)-14,15-(5Z,8Z,11Z)-EET]
mitochondrial membrane potential (ΔΨm), JC-1 (MCF-7 cells [1]): increased mitochondrial cross membrane potential
Stat3 phosphorylation on Y705 and S727 (MCF-7 cells [2]): activated
total mTOR level (MCF-7 cells [2]): increased
AMPK phosphorylation (pAMPK) (MCF-7 cells [3]; 1 μM, 24 hours, MCF-7): suppression of pAMPKc
AMPK phosphorylation (MDA-MB-231 cell line): no effect on AMPK phosphorylation
mitochondrial membrane potential (ΔΨm), JC-1 (MDA-MB-231 cells): increased mitochondrial membrane potential

Compound: C=C(C)[C@H]1Cc2c(ccc3c2O[C@@H]2COc4cc(OC)c(OC)cc4[C@@H]2C3=O)O1 [rotenone]
extracellular acidification rate (ECAR) (MCF-7 cells [4]): Reduction of OCR and ECAR was highly significant
oxygen consumption rate (OCR) (MCF-7 cells [4]): Reduction of OCR and ECAR was highly significant

Compound: CN(C)C(=N)N=C(N)N [metformin]
binding to CYP2C8 (CYP2C8): binds
extracellular acidification rate (ECAR) (MCF-7 cells [4]): marginal
oxygen consumption rate (OCR) (MCF-7 cells [4]): marginal reduction of OCR
total cellular ATP levels (MCF-7 cells [5]): unchanged; also recorded: failed to deplete cellular ATP
IC50 (MCF-7; read-out: IC50 MCF-7): 5000 µM
CYP3A4 protein levels (MCF-7 cells [3]; 1 mM, 48 hours): did not affect; also recorded: did not change CYP3A4 protein levels
onset of AMPK activation (phosphorylation) (MCF-7 cells [3]; HBB 20 μM, metformin 5 mM): first detectable after 6 hours
CPR-mediated reduction of cytochrome c [6]: not affected
CPR-mediated reduction of cytochrome c ([6]; listed as Metformin): failed to inhibit
inhibition of CYP2J2 epoxygenase activity (CYP2J2 [7]): not inhibited
activity on the MCF-7 xenograft (MCF-7 xenograft): little activity
clonogenicity (MCF-7 cells [8]): Inhibits Clonogenicity
cellular EET levels (MCF-7 cells [9]): reduced
binding to CYP2J2 (CYP2J2 [10]): binds

Further lines, results first:

IC50 (MCF-7; read-out: IC50 MCF-7): > 10000 µM
Compound: CCCCNC(=N)N=C(N)N [buformin, reference compound]

IC50 (MCF-7; [11]): 40 µM
IC50 (MCF-7; read-out: IC50 MCF-7): 40 µM
Compound: CCCCCCNC(=N)NC(=N)NCc1ccncc1 [HPB, N1-hexyl-N5-(pyridin-4-ylmethyl) biguanide]

IC50 (MCF-7; read-out: IC50 MCF-7): 7000 µM
Compound: N=C(N)/N=C(\N)NCCc1ccccc1 [phenformin, reference compound]
